Data from US5610320A, “Sulfonamide phenyl substituted compounds” (Eisai Co., Ltd., priority 1990, dated 1997).
Converted amounts (≈) assume the structure as drawn. Read-outs that look alike come from different tables or passages of the source.

Assays:
[1] = test system: KB cells (human nasopharyngeal cells); assay: In vitro antineoplastic test on KB cells (MTT, 3 days); assay type: cell-based; settings: 72 h, KB cells in vitro, 37° C. for three days, MTT, read-out: IC50
[2] = test system: colon 38 (cancer of the colon of mice); assay type: in vivo, mice (BDF1, female); settings: once a day for 8 days, 21 days after transplantation
Experimental: In vivo antineoplastic test on colon 38 (cancer of the colon of mice):
About 75 mg of colon 38 was subcutaneously transplanted in the side of the body of each of 7-week old female BDF1 mice. A compound of the present invention was suspended in 0.5% methylcellulose and oral administration of a predetermined amount of the suspension once a day was started on the next day and continued for 8 days. 0.5% methylcellulose was orally given to a control group. The control group consisted of 10 mice and the group to which the medicine was given consisted of 6 mice.
21 days after the transplantation, the tumors were taken out and weighed. The tumor growth inhibition ratio of the group to which the medicine was given to the control group was determined according to the following formula:
Growth inhibition ratio (%) (C-T)/C×100
T: average weight of tumor in the group to which the test compound was given
C: average weight of tumor in the control group

[3] = test system: BDF1 mice; parameters: species or system female); settings: mouse, in vivo, 1651 mg/kg
Experimental: EXPERIMENTAL EXAMPLE 3: Toxicity tests
No mouse died, even with 1651 mg/kg of the compound.

For CCc1ccc(S(=O)(=O)Nc2cccnc2Nc2ccccc2)cc1 [Example 2, N-(2-Anilino-3-pyridyl)-4-ethylbenzenesulfonamide], the IC50 [1] was 1.7 µg/mL (≈ 4.81 µM) and the Growth inhibition ratio ([2]; 100 mg/kg/day oral) was 69%.

Cc1ccc(S(=O)(=O)Nc2cccnc2Nc2ccccc2)cc1 [Example 1, N-(2-Anilino-3-pyridyl)-p-toluenesulfonamide] was tested, and the IC50 [1] was 1.5 µg/mL (≈ 4.42 µM) and the Growth inhibition ratio ([2]; 100 mg/kg/day oral) was 80%.

For COc1ccc(Nc2ncccc2NS(=O)(=O)c2ccc(OC)cc2)cc1 [Example 4, 4-Methoxy-N-[2-[(4-methoxyphenyl)amino]-3-pyridyl]benzenesulfonamide], the IC50 [1] was 1.9 µg/mL (≈ 4.93 µM), the Growth inhibition ratio ([2]; 100 mg/kg/day oral) was 99% and the “viability observed for 7 days after the administration” value (from here on “viability observed for 7 days”) [3] was “No mouse died”.

For COc1ccc(S(=O)(=O)Nc2cccnc2Nc2ccccc2)cc1 [Example 3, N-(2-Anilino-3-pyridyl)-4-methoxybenzenesulfonamide], the IC50 [1] was 0.27 µg/mL (≈ 0.76 µM), the Growth inhibition ratio ([2]; 100 mg/kg/day oral) was 98% and the “viability observed for 7 days” value [3] was “No mouse died”.

In the case of COc1ccc(S(=O)(=O)Nc2cccnc2Nc2ccncc2)cc1 [Example 7, 4-Methoxy-N-[2-[(4-pyridyl)amino]-3-pyridyl]benzenesulfonamide], the IC50 [1] is reported as 1 µg/mL (≈ 2.81 µM) and the Growth inhibition ratio ([2]; 50 mg/kg/day oral) is reported as 61%.

COc1ccc(S(=O)(=O)Nc2cccnc2Nc2ccc(O)cc2)cc1 [Example 6, N-[2-[(4-Hydroxyphenyl)amino]-3-pyridyl]-4-methoxybenzenesulfonamide] was tested, and the IC50 [1] was 0.42 µg/mL (≈ 1.13 µM), the Growth inhibition ratio ([2]; 100 mg/kg/day oral) was 98% and the “viability observed for 7 days” value [3] was “No mouse died”.

COc1ccc(S(=O)(=O)Nc2ccccc2NC(=O)c2cccnc2C)cc1 [Example 70, N-[2-(4-Methoxybenzenesulfonamido)phenyl]-2-methylnicotinamide] gave an IC50 [1] of 0.033 µg/mL (≈ 0.083 µM) and a Growth inhibition ratio ([2]; 50 mg/kg/day oral) of 63%.
